Measured values as given in US5985879A, “Compounds useful for inhibition of farnesyl protein transferase” (Schering Corporation, priority 1997, dated 1999).

Tests used:
[1] = target: farnesyl protein transferase (K-ras) (Homo sapiens, UniProt P49354+P49356); assay: FPT IC50 (K-ras), inhibition of farnesyl protein transferase, in vitro enzyme assay; assay type: biochemical
Protocol: (§1) FPT IC50 (inhibition of farnesyl protein transferase, in vitro enzyme assay) and COS Cell IC50 (Cell-Based Assay) were determined following the assay procedures described in WO 95/10516, published Apr. 20, 1995. GGPT IC50 (inhibition of geranylgeranyl protein transferase, in vitro enzyme assay), Cell Mat Assay, and anti-tumor activity (in vivo anti-tumor studies) could be determined by the assay procedures described in WO 95/10516. The disclosure of WO 95/10516 is incorporated herein by reference thereto.

[2] = target: farnesyl protein transferase (H-ras) (Homo sapiens, UniProt P49354+P49356); assay: FPT IC50 (H-ras), inhibition of farnesyl protein transferase, in vitro enzyme assay; assay type: biochemical
Protocol: as §1

COS Cell = COS Cell IC50 (Cell-Based Assay); conditions: COS cells
Protocol: as §1

Human tumor cells = assay: Soft Agar Assay (anchorage-independent growth); assay type: cell-based; conditions: incubated 10-16 days at 37° C. under 5% CO2, MTT stain
Protocol: Anchorage-independent growth is a characteristic of tumorigenic cell lines. Human tumor cells are suspended in growth medium containing 0.3% agarose and an indicated concentration of a farnesyl transferase inhibitor. The solution is overlayed onto growth medium solidified with 0.6% agarose containing the same concentration of farnesyl transferase inhibitor as the top layer. After the top layer is solidified, plates are incubated for 10-16 days at 37° C. under 5% CO2 to allow colony outgrowth. After incubation, the colonies are stained by overlaying the agar with a solution of MTT (3-[4,5-dimethyl-thiazol-2-yl]-2,5-diphenyltetrazolium bromide, Thiazolyl blue) (1 mg/mL in PBS). Colonies can be counted and the IC50 's can be determined.

IC50 [1] [µM] | IC50 [2] [µM] | IC50 (Human tumor cells) [µM] | Structure (SMILES) | IC50 (COS Cell) [µM]
0.091 | 0.016 | – | O=C(CC1CCN(c2nc3ccccc3o2)CC1)N1CCC([C@H]2c3ncc(Br)cc3CCc3cc(Cl)cc(Br)c32)CC1 [Formula 4.0] | 0.12
0.029 | 0.0106 | > 0.5 | O=C(CC1CCN(c2ccccn2)CC1)N1CCC([C@H]2c3ncc(Br)cc3CCc3cc(Cl)cc(Br)c32)CC1 [Formula 5.0] | 0.039

More lines, now with the values behind:

Structure (SMILES) | IC50 [1] [µM] | IC50 [2] [µM] | IC50 (Human tumor cells) [µM] | IC50 (COS Cell) [µM]
O=C(CC1CCN(c2ncccn2)CC1)N1CCC([C@H]2c3ncc(Br)cc3CCc3cc(Cl)cc(Br)c32)CC1 [Formula 6.0] | – | 0.02 | – | 0.068
O=C(CC1CCN(c2nnnn2-c2ccccc2)CC1)N1CCC([C@H]2c3ncc(Br)cc3CCc3cc(Cl)cc(Br)c32)CC1 [Formula 2.0] | – | 0.031 | – | –
O=C(CC1CCN(c2nccs2)CC1)N1CCC([C@H]2c3ncc(Br)cc3CCc3cc(Cl)cc(Br)c32)CC1 [Formula 3.0] | – | 0.14 | – | –
CC(=O)OC[C@H]1O[C@@H](N2CCC(CC(=O)N3CCC([C@H]4c5ncc(Br)cc5CCc5cc(Cl)cc(Br)c54)CC3)CC2)[C@H](OC(C)=O)[C@@H](OC(C)=O)[C@@H]1OC(C)=O [Formula 9.3] | 0.0409 | 0.0046 | 0.08 | 0.035
